According to ChEMBL document CHEMBL1201862, “PubChem BioAssay data set” (2004):
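The compound was tested at five concentrations on cells cultured in 96-well plates, with a 48-hour exposure period. At the GI50, growth is halved.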 Activity calls are given as the source filed them. No stated cut-off is given here; in the data, active = GI50 up to about 1.1 µM and inactive = higher.

Experiments:
Experiment in all cases: growth of human tumour cells (NCI), 48 h
[1] = test system: HOP-62
[2] = test system: DU-145
[3] = test system: RXF 393
[4] = test system: OVCAR-8
[5] = test system: OVCAR-3
[6] = test system: Malme-3M
[7] = test system: HCT-15
[8] = test system: SK-MEL-5
[9] = test system: NCI-H522
[10] = test system: OVCAR-4
[11] = test system: OVCAR-5
[12] = test system: HL-60
[13] = test system: A498
[14] = test system: HCC 2998
[15] = test system: SN12C
[16] = test system: 786-0
[17] = test system: RPMI-8226
[18] = test system: MDA-MB-435
[19] = test system: U-251
[20] = test system: SF-268
[21] = test system: SW-620
[22] = test system: SR
[23] = test system: UACC-62
[24] = test system: COLO 205
[25] = test system: NCI/ADR-RES
[26] = test system: EKVX
[27] = test system: PC-3
[28] = test system: Hs-578T
[29] = test system: MOLT-4
[30] = test system: SF-539
[31] = test system: IGROV-1
[32] = test system: MDA-MB-231
[33] = test system: SK-MEL-28
[34] = test system: MCF7
[35] = test system: NCI-H23
[36] = test system: KM12
[37] = test system: LOX IMVI
[38] = test system: HT-29
[39] = test system: SK-MEL-2
[40] = test system: UACC-257
[41] = test system: TK-10
[42] = test system: MDA-N
[43] = test system: BT-549
[44] = test system: SNB-75
[45] = test system: M14
[46] = test system: A549
[47] = test system: CAKI-1
[48] = test system: NCI-H460
[49] = test system: CCRF-CEM
[50] = test system: SK-OV-3
[51] = test system: ACHN
[52] = test system: NCI-H226
[53] = test system: T47D
[54] = test system: HCT-116
[55] = test system: HOP-92
[56] = test system: SNB-19
[57] = test system: SF-295
[58] = test system: K562
[59] = test system: UO-31

## C=C1C(=O)OC2CC3(CO3)C3C(O)C(O)CC3(C)CC12 (stereo unspecified)
[1]
  GI50: 61.9 µM (inactive)
[2]
  GI50: 34.4 µM (inactive)
[3]
  GI50: 16.7 µM (inactive)
[4]
  GI50: 22.3 µM (inactive)
[5]
  GI50: 21.9 µM (inactive)
[6]
  GI50: 18.2 µM (inactive)
[7]
  GI50: 17 µM
[8]
  GI50: 19 µM (inactive)
[9]
  GI50: 12.3 µM (inactive)
[10]
  GI50: 76.6 µM (inactive)
[11]
  GI50: 27.7 µM (inactive)
[12]
  GI50: 12.7 µM (inactive)
[13]
  GI50: 28.4 µM (inactive)
[14]
  GI50: 17.3 µM (inactive)
[15]
  GI50: 24.4 µM (inactive)
[16]
  GI50: 76.9 µM (inactive)
[17]
  GI50: 30.9 µM (inactive)
[18]
  GI50: 25.4 µM (inactive)
[19]
  GI50: 43 µM (inactive)
[20]
  GI50: 40.3 µM (inactive)
[21]
  GI50: 16.6 µM (inactive)
[22]
  GI50: 20.8 µM (inactive)
[23]
  GI50: 16.6 µM (inactive)
[24]
  GI50: 29.9 µM (inactive)
[25]
  GI50: 38.8 µM (inactive)
[26]
  GI50: 18.3 µM (inactive)
[27]
  GI50: 45.8 µM (inactive)
[28]
  GI50: 81.3 µM (inactive)
[29]
  GI50: 17.8 µM (inactive)
[30]
  GI50: 19.1 µM (inactive)
[31]
  GI50: 35.6 µM (inactive)
[32]
  GI50: 28.6 µM (inactive)
[33]
  GI50: 17.4 µM (inactive)
[34]
  GI50: 21 µM (inactive)
[35]
  GI50: 22.3 µM (inactive)
[36]
  GI50: 32.9 µM (inactive)
[37]
  GI50: 8.24 µM (inactive)
[38]
  GI50: 30.5 µM (inactive)
[39]
  GI50: 16 µM (inactive)
[40]
  GI50: 39.2 µM (inactive)
[41]
  GI50: 35.6 µM (inactive)
[42]
  GI50: 23.4 µM (inactive)
[43]
  GI50: 18.1 µM (inactive)
[44]
  GI50: 49.8 µM (inactive)
[45]
  GI50: 16.4 µM (inactive)
[46]
  GI50: 40.9 µM (inactive)
[47]
  GI50: 20.3 µM (inactive)
[48]
  GI50: 34.9 µM (inactive)
[49]
  GI50: 15.2 µM (inactive)
[50]
  GI50: > 100 µM (inactive)
[51]
  GI50: 19.7 µM (inactive)
[52]
  GI50: > 100 µM (inactive)
[53]
  GI50: 30.9 µM (inactive)
[54]
  GI50: 18.2 µM (inactive)
[55]
  GI50: 27.6 µM (inactive)
[56]
  GI50: > 100 µM (inactive)
[57]
  GI50: > 100 µM (inactive)
[58]
  GI50: 27.5 µM (inactive)

## COCOc1cc(OCOC)cc(C(=O)Oc2ccccc2)c1
[1]
  GI50: > 100 µM (inactive)
[2]
  GI50: > 100 µM (inactive)
[3]
  GI50: > 100 µM (inactive)
[4]
  GI50: > 100 µM (inactive)
[5]
  GI50: > 100 µM (inactive)
[6]
  GI50: > 100 µM (inactive)
[7]
  GI50: > 100 µM
[8]
  GI50: > 100 µM (inactive)
[9]
  GI50: 48.3 µM (inactive)
[10]
  GI50: > 100 µM (inactive)
[11]
  GI50: > 100 µM (inactive)
[12]
  GI50: > 100 µM (inactive)
[13]
  GI50: > 100 µM (inactive)
[14]
  GI50: > 100 µM (inactive)
[15]
  GI50: > 100 µM (inactive)
[16]
  GI50: > 100 µM (inactive)
[17]
  GI50: 61.7 µM (inactive)
[18]
  GI50: > 100 µM (inactive)
[19]
  GI50: > 100 µM (inactive)
[20]
  GI50: > 100 µM (inactive)
[21]
  GI50: > 100 µM (inactive)
[22]
  GI50: 85.9 µM (inactive)
[23]
  GI50: > 100 µM (inactive)
[24]
  GI50: > 100 µM (inactive)
[25]
  GI50: > 100 µM (inactive)
[26]
  GI50: 91.4 µM (inactive)
[27]
  GI50: 93.8 µM (inactive)
[28]
  GI50: 43.1 µM (inactive)
[29]
  GI50: > 100 µM (inactive)
[30]
  GI50: > 100 µM (inactive)
[31]
  GI50: > 100 µM (inactive)
[32]
  GI50: > 100 µM (inactive)
[33]
  GI50: > 100 µM (inactive)
[34]
  GI50: > 100 µM (inactive)
[35]
  GI50: > 100 µM (inactive)
[36]
  GI50: > 100 µM (inactive)
[37]
  GI50: > 100 µM (inactive)
[38]
  GI50: > 100 µM (inactive)
[39]
  GI50: > 100 µM (inactive)
[40]
  GI50: > 100 µM (inactive)
[41]
  GI50: > 100 µM (inactive)
[42]
  GI50: > 100 µM (inactive)
[43]
  GI50: > 100 µM (inactive)
[44]
  GI50: 78.3 µM (inactive)
[45]
  GI50: > 100 µM (inactive)
[46]
  GI50: > 100 µM (inactive)
[47]
  GI50: > 100 µM (inactive)
[48]
  GI50: > 100 µM (inactive)
[50]
  GI50: > 100 µM (inactive)
[51]
  GI50: > 100 µM (inactive)
[52]
  GI50: > 100 µM (inactive)
[53]
  GI50: 57.4 µM (inactive)
[59]
  GI50: 78.5 µM (inactive)
[54]
  GI50: > 100 µM (inactive)
[55]
  GI50: > 100 µM (inactive)
[56]
  GI50: > 100 µM (inactive)
[57]
  GI50: > 100 µM (inactive)
[58]
  GI50: > 100 µM (inactive)
